According to paper PMC10935503 (Acta Pharmaceutica Sinica. B, 2023):
Converted amounts (≈) assume the structure as drawn.

Tests used:
CYP2C9 = CYP2C9 (Homo sapiens, UniProt P11712); experiment: Cytochrome P450 inhibition assay, CYP2C9; assay type: in vitro ADME
HIV-1 Y181C = experiment: microbe, parasite or virus in culture; assay type: cell-based
hERG channel = hERG channel (Homo sapiens, UniProt Q12809); experiment: hERG channel inhibition assay, manual patch-clamp in HEK293 cells; assay type: cell-based; conditions: HEK293 cells stably transfected with hERG cDNA
Sequence of hERG channel (Q12809 whole entry): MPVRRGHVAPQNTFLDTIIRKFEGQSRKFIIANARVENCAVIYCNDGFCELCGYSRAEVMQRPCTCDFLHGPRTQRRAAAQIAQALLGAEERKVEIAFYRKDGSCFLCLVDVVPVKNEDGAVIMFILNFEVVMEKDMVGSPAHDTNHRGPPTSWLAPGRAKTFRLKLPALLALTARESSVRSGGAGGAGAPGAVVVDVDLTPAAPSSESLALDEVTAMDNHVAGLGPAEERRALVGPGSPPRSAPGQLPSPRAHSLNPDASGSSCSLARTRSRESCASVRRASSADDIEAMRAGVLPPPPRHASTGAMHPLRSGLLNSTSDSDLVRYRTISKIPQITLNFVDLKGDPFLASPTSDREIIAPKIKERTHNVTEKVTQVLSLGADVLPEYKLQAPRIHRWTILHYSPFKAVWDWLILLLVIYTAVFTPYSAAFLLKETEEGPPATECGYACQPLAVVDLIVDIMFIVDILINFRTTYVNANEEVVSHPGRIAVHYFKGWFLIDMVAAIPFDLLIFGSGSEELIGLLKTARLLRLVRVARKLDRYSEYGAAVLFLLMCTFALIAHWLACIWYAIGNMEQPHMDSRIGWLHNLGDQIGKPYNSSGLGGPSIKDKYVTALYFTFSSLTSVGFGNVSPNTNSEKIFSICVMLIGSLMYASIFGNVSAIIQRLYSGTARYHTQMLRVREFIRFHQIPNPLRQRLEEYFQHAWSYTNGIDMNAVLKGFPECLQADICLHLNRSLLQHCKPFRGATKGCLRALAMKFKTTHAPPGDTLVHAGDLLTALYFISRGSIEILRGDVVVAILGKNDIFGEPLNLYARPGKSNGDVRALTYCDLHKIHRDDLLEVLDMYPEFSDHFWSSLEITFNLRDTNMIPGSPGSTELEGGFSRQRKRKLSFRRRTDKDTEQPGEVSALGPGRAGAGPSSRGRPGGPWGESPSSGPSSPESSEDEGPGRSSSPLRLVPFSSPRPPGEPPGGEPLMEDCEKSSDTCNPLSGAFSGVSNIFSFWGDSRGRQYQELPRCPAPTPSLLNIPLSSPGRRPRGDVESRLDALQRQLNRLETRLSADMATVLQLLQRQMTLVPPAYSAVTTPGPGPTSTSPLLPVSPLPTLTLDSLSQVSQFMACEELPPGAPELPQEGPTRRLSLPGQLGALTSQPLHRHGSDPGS

HIV-1 Y188L = experiment: microbe, parasite or virus in culture; assay type: cell-based
HIV-1 L100I = experiment: microbe, parasite or virus in culture; assay type: cell-based
HIV-1 K103N = experiment: microbe, parasite or virus in culture; assay type: cell-based
HIV-1 F227L + V106A = experiment: microbe, parasite or virus in culture; assay type: cell-based
[1] = In vivo pharmacokinetics in SD rats; design: species or system Sprague–Dawley (SD) rats
HIV-1 E138K = experiment: microbe, parasite or virus in culture; assay type: cell-based
[2] = test system: main CYP enzymes (CYP1A2, CYP2C9, CYP2C19, CYP2D6, CYP3A4; range over isoforms); experiment: Cytochrome P450 inhibition assay, summary over isoforms; assay type: in vitro ADME; conditions: human, human liver microsomes
HIV-1 WT strain (IIIB) = experiment: Anti-HIV-1 activity in MT-4 cells, MTT method, WT strain IIIB; assay type: cell-based; conditions: Human immunodeficiency virus 1, IIIB, MT4, read-out: EC50 IIIB
CYP3A4 = CYP3A4 (Homo sapiens, UniProt P08684); experiment: Cytochrome P450 inhibition assay, CYP3A4
Sequence of CYP3A4 (P08684 whole entry): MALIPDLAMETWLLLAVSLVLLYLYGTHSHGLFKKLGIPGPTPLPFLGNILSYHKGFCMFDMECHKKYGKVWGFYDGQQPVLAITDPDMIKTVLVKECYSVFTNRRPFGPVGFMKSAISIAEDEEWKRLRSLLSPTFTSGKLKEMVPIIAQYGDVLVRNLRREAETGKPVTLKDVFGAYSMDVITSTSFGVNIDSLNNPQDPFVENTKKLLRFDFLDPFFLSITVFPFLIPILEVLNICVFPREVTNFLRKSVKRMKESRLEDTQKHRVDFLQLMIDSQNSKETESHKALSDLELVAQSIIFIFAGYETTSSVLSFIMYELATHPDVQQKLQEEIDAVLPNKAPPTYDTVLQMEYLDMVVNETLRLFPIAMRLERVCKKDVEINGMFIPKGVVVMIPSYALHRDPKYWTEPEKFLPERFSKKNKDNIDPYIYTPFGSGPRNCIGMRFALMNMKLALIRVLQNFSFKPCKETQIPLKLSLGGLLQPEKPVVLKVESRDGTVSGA

CYP2D6 = CYP2D6 (Homo sapiens, UniProt P10635); experiment: biochemical
Sequence of CYP2D6 (P10635 whole entry): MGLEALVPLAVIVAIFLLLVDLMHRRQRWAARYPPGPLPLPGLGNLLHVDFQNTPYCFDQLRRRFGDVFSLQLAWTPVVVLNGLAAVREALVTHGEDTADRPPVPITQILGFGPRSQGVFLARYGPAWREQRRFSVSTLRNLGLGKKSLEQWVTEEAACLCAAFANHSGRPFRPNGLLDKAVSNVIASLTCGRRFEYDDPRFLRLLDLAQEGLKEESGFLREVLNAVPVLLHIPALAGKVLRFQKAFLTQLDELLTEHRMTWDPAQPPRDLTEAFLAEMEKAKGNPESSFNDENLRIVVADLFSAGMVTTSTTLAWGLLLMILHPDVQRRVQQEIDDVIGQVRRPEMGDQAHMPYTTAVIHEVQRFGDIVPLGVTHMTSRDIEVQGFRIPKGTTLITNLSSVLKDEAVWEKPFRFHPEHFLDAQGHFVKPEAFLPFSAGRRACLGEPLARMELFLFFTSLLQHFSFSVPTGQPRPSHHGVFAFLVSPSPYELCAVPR

HIV-1 RT = HIV-1 RT (Human immunodeficiency virus type 1 group M subtype B, UniProt P03366); experiment: HIV-1 RT inhibition assay; assay type: biochemical
CYP2C19 = CYP2C19 (Homo sapiens, UniProt P33261); experiment: Cytochrome P450 inhibition assay, CYP2C19; assay type: in vitro ADME
Sequence of CYP2C19 (P33261 whole entry): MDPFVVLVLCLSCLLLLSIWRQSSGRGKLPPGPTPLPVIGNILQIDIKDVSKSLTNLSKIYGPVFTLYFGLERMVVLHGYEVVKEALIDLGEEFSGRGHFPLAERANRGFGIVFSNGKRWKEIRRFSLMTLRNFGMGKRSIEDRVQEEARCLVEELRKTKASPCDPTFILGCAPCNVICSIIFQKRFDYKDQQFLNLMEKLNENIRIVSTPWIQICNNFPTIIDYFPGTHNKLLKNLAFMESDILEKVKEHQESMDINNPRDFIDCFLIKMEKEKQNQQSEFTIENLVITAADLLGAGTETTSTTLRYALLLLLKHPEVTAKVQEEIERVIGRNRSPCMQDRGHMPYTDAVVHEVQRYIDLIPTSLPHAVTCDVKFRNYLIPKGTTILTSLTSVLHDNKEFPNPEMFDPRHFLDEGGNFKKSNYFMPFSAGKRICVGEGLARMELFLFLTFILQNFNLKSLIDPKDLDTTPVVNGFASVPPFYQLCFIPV

CYP1A2 = molecular target: T1, CYP1A2 (Homo sapiens, UniProt P05177); experiment: Cytochrome P450 inhibition assay, CYP1A2
T1 sequence (P05177 1-516): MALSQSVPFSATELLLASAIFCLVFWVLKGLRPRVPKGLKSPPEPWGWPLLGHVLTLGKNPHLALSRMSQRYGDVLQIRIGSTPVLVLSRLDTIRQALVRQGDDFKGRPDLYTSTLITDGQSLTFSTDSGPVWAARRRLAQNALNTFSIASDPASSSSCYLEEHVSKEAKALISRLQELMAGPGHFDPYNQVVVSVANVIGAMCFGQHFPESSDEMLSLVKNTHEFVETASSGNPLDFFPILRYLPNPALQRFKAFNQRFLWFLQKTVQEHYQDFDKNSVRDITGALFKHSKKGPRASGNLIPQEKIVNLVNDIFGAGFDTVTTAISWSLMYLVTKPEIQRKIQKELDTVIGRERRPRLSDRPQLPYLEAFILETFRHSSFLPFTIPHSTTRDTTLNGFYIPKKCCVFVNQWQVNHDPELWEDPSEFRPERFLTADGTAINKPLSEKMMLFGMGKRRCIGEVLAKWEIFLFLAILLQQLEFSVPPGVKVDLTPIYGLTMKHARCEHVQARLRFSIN

[3] = test system: HIV-1 K103N + Y181C (RES056); experiment: microbe, parasite or virus in culture; assay type: cell-based
[4] = Cytotoxicity in mock-infected MT-4 cells, MTT method; assay type: cell-based; conditions: human
[5] = Single-dose acute toxicity in mice; assay type: in vivo; conditions: Kunming mice, single intragastric dose 2000 mg/kg, 7 days observation
[6] = resistance fold, EC50 (mutant strain)/EC50 (WT strain)
[7] = selectivity index, ratio of CC50/EC50
[8] = Sprague-Dawley, rat, plasma, iv, 2 mg/kg
[9] = Sprague-Dawley, rat, plasma, po, 20 mg/kg

Sequence of CYP2C9 (P11712 whole entry): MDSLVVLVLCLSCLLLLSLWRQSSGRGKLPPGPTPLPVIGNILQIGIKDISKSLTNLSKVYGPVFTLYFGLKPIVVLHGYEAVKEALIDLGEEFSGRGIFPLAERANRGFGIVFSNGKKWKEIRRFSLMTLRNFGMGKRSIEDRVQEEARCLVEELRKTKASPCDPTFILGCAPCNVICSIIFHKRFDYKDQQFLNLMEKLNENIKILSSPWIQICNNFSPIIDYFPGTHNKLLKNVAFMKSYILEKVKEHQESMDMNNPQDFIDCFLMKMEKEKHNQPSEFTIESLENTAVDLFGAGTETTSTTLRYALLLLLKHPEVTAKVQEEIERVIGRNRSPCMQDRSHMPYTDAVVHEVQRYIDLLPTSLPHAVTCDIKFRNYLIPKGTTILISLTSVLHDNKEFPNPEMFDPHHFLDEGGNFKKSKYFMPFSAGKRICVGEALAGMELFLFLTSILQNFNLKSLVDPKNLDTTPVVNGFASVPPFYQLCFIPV

For `Cc1cc(/C=C/C#N)cc(C)c1Oc1nc(NC2CCN(Cc3ccc(S(N)(=O)=O)cc3)CC2)nc2c1SCCC2` [compound 23h, (E)-4-((4-((4-(4-(2-Cyanovinyl)-2,6-dimethylphenoxy)-7,8-dihydro-6H-thiopyrano[3,2-d]pyrimidin-2-yl)amino)piperidin-1-yl)methyl)benzenesulfonamide], the IC50 (CYP2C9) was 3410 nM, the EC50 (HIV-1 Y181C; Human immunodeficiency virus 1, MT4, read-out: EC50 Y181C) was 8.46 ± 1.17 nM and the “Fold improvement in potency compared to ETR, Y181C” value (HIV-1 Y181C; ratio of EC50 values vs ETR) was 1.7 fold. For the same compound, the “RF Y181C” value (HIV-1 Y181C; [6]) was 2.5, the “SI Y181C” value (HIV-1 Y181C; [7]) was 391 and the IC50 (hERG channel) was 79 nM. The EC50 (HIV-1 Y188L; Human immunodeficiency virus 1, MT4, read-out: EC50 Y188L) was 16.5 ± 5.18 nM, the “RF Y188L” value (HIV-1 Y188L; [6]) was 4.8 and the “SI Y188L” value (HIV-1 Y188L; [7]) was 201. For the same compound, the EC50 (HIV-1 L100I; Human immunodeficiency virus 1, MT4, read-out: EC50 L100I) was 4.46 ± 0.36 nM, the “Times greater activity than ETR, L100I” value (HIV-1 L100I; ratio of EC50 values vs ETR) was 2.0 times and the “RF L100I” value (HIV-1 L100I; [6]) was 1.3. For the same compound, the “SI L100I” value (HIV-1 L100I; [7]) was 742, the EC50 (HIV-1 K103N; Human immunodeficiency virus 1, MT4, read-out: EC50 K103N) was 6.13 ± 0.12 nM and the “RF K103N” value (HIV-1 K103N; [6]) was 1.8. The “SI K103N” value (HIV-1 K103N; [7]) was 540, the EC50 (HIV-1 F227L + V106A; Human immunodeficiency virus 1, MT4, read-out: EC50 F227L + V106A) was 5.35 ± 0.69 nM and the “Fold better than EFV, F227L + V106A” value (HIV-1 F227L + V106A; ratio of EC50 values vs EFV) was 14.5 fold. For the same compound, the “Fold better than RPV, F227L + V106A” value (HIV-1 F227L + V106A; ratio of EC50 values vs RPV) was 15.3 fold, the “RF F227L + V106A” value (HIV-1 F227L + V106A; [6]) was 1.6 and the “SI F227L + V106A” value (HIV-1 F227L + V106A; [7]) was 619. The “V (iv)” value ([1]; SD rats, iv 2 mg/kg, mean ± SD, n = 3, 2 mg/kg) was 49.7 L/kg, the AUC(0-inf) [1, 8] was 1210 ± 78.9 ng·h/mL and the AUC(0-t) [1, 8] was 1150 ± 69.7 ng·h/mL. For the same compound, the MRT inf [1, 8] was 2.03 ± 0.41 h, the MRT last [1, 8] was 1.56 ± 0.17 h and the clearance [1, 8] was 277 mL/min/kg. For the same compound, the half-life [1, 8] was 2.09 ± 0.39 h, the bioavailability ([1]; Sprague-Dawley, rat, plasma, oral, 20 mg/kg) was 15.3% and the AUC(0-inf) [1, 9] was 1860 ± 1680 ng·h/mL. The AUC(0-t) [1, 9] was 1680 ± 1480 ng·h/mL, the Cmax [1, 9] was 333 ± 276 ng/mL and the MRT inf [1, 9] was 5.02 ± 0.48 h. For the same compound, the MRT last [1, 9] was 4.1 ± 0.12 h, the Tmax [1, 9] was 1.5 ± 0.87 h and the half-life [1, 9] was 3 ± 0.74 h. For the same compound, the EC50 (HIV-1 E138K; Human immunodeficiency virus 1, MT4, read-out: EC50 E138K) was 21.4 ± 4.19 nM, the “RF E138K” value (HIV-1 E138K; [6]) was 6.2 and the “SI E138K” value (HIV-1 E138K; [7]) was 155. The IC50 at 10 min [2] was 3410 to 50000 nM, the EC50 (HIV-1 WT strain (IIIB)) was 3.43 ± 2 nM and the IC50 (CYP3A4) was 13500 nM. The solubility (physchem; pH 2, aqueous buffer) was 161 µg/mL (≈ 273 µM), the solubility (physchem; pH 7, aqueous buffer) was 11.7 µg/mL (≈ 19.8 µM) and the solubility (physchem; pH 7.4, aqueous buffer) was 3.04 µg/mL (≈ 5.15 µM). For the same compound, the IC50 (CYP2D6) was 36800 nM, the IC50 (HIV-1 RT) was 529 ± 142 nM and the IC50 (CYP2C19) was 15600 nM. For the same compound, the IC50 (CYP1A2) was greater than 50000 nM, the EC50 ([3]; Human immunodeficiency virus 1, MT4, read-out: EC50 RES056) was 15.2 ± 9.44 nM and the “Fold greater potency than EFV, RES056” value ([3]; ratio of EC50 values vs EFV) was 7.5 fold. For the same compound, the “Fold greater potency than ETR, RES056” value ([3]; ratio of EC50 values vs ETR) was 2.3 fold, the “RF RES056” value [3, 6] was 4.4 and the “SI RES056” value [3, 7] was 218. For the same compound, the CC50 at 5 days [4] was 3310 ± 1700 nM and the “Death or signs of intoxication” value [5] was “no death or signs of intoxication”.
